Measured values from patent publication US7723537B2, “Skin lightening agents, compositions and methods” (Unilever Home & Personal Care USA, Division of Conopco, Inc., priority 2004, dated 2010).

Experiments:
B16 mouse melanoma cells = test: Cell based assay: melanin synthesis in B16 mouse melanoma cells; settings: 6.25 micromolar, 72 hours, absorbency of medium at 530 nm, read-out: % of Control (Melanin Synthesis)
Experimental: This experiment was carried out using a cell based assay.
B16 mouse melanoma cells were utilized in the following experiment to evaluate the efficacy of skin lightening agents. B16 cells were plated in 96-well microtiter plates at a density of 5000 cells per well and cultured overnight in Dulbecco's Modified Eagle's Medium (phenol red free) containing 10% fetal bovine serum and 1% penicillin/streptomycin at 37° C. in the presence of 5% CO2. After 24 hours, the medium was replaced with fresh growth medium containing the treatments. All cultures were incubated for 72 hours at which time melanin was visible in the control treatment. The melanin-containing medium was transferred to a clean 96-well plate and quantified by reading the absorbency at 530-nm. Cell viability was assessed by measurement of lactate dehydrogenase levels to ensure the decrease in melanin was not a result of cellular toxicity.

mushroom tyrosinase = test: Mushroom tyrosinase assay; assay type: biochemical; settings: for Tyrosinase activity (% of ethanol control): slope of 475-nm absorbency vs ethanol control, L-DOPA substrate; for effectiveness in skin lightening as measured by the mushroom tyrosinase assay (in words): compared with 4-ethyl resorcinol
Experimental: Mushroom tyrosinase inhibition is indicative of reduction in melanin synthesis, thereby showing skin lightening effect.
Into each well of a 96-well plate, 150 microliters of phosphate buffer (100 mM, pH 7.0), 10 microliters of L-DOPA (L-3,4-Dihydroxyphenylalanine, 10 mM), and 20 microliters of skin lightening agent (dissolved in ethanol, which is the control) were added. Following an initial measurement of background absorbency at 475-nm, 20 microliters of mushroom tyrosinase (Sigma T-7755; 6050 units/ml) was added and incubated at room temperature.
Absorbency was read at 475-nm over the following time points: 0, 2, 4, and 6.5 minutes. The data is plotted as 475-nm absorbency vs. time (minutes) and the slope of the line is calculated (ΔAbs 475 nm/min). Values are expressed as the percentage of the respective untreated ethanol control reaction.

Structure (SMILES) | Tyrosinase activity (% of ethanol control) (mushroom tyrosinase; 0.1 micro-M) [%] | Tyrosinase activity (% of ethanol control) (mushroom tyrosinase; 1 micro-M) [%] | Tyrosinase activity (% of ethanol control) (mushroom tyrosinase; 10 micro-M) [%] | Tyrosinase activity (% of ethanol control) (mushroom tyrosinase; 100 micro-M) [%] | Tyrosinase activity (% of ethanol control) (mushroom tyrosinase; 1.56 micro-M) [%] | Tyrosinase activity (% of ethanol control) (mushroom tyrosinase; 12.5 micro-M) [%] | activity at 6.25 µM (B16 mouse melanoma cells) [%] | effectiveness in skin lightening as measured by the mushroom tyrosinase assay (in words) (mushroom tyrosinase)
CCc1ccc(O)cc1O [4-Ethyl Resorcinol, reference compound] | 72.7 | 46.3 | 30.8 | 20.7 |  |  | 34 | 
O=c1ccc2ccc(O)cc2o1 [7-Hydroxy Coumarin, reference compound] | 104 | 100 | 108 | 117 |  |  |  | 

Now from value to molecule, other results behind:

Tyrosinase activity (% of ethanol control) (mushroom tyrosinase; 0.1 micro-M) [%] | Tyrosinase activity (% of ethanol control) (mushroom tyrosinase; 1 micro-M) [%] | Tyrosinase activity (% of ethanol control) (mushroom tyrosinase; 10 micro-M) [%] | Tyrosinase activity (% of ethanol control) (mushroom tyrosinase; 100 micro-M) [%] | Tyrosinase activity (% of ethanol control) (mushroom tyrosinase; 1.56 micro-M) [%] | Tyrosinase activity (% of ethanol control) (mushroom tyrosinase; 12.5 micro-M) [%] | Structure (SMILES) | activity at 6.25 µM (B16 mouse melanoma cells) [%] | effectiveness in skin lightening as measured by the mushroom tyrosinase assay (in words) (mushroom tyrosinase)
 | 94.2 |  | 75.3 | 90.4 | 70.4 | CC1CC(=O)Oc2cc(O)ccc21 (stereo not drawn) [B1, 7-hydroxy-3,4-dihydro-4-methylcoumarin] | 75.8 | not effective in skin lightening
 | 73.1 |  | 41.0 | 39.3 | 35.8 | COC(=O)CC(C)c1ccc(O)cc1O (stereo not drawn) [D1, Methyl 3-(2,4-dihydroxyphenyl)-butyrate] | 36.4 | substantially as effective as 4-ethyl resorcinol
 | 73.3 |  | 20.6 | 41.6 | 28.0 | CC(CC(=O)O)c1ccc(O)cc1O (stereo not drawn) [II, 3-(2,4-dihydroxyphenyl)-butyric acid] | 32.8 | substantially as effective as 4-ethyl resorcinol
